Test results from patent US10683297B2 (Sunshine Lake Pharma Co., Ltd., priority 2017, dated 2020).
Marks after values point to notes of the source that are not given here.

Columns and labels:
JAK1 (h) = target: T1, JAK1 (h) (Homo sapiens, UniProt P23458); test: JAK1 (h) kinase assay; format: biochemical; details: [γ-33P-ATP] 10 μM or KM values; 40 minutes at room temperature
T1 construct: purchased Millipore UK Ltd (assays performed there as a service)
Summary of the method: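 Radiometric filter-binding assay: human JAK1 incubated 40 min at room temperature in 20 mM Tris/HCl pH 7.5, 0.2 mM EDTA, 500 μM peptide substrate, 10 mM Mg acetate, with [γ-33P]ATP at 10 μM or KM. Reaction stopped with phosphoric acid; P30 filtermat scintillation counting.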

[1] = Compound stability in rat liver microsomes; format: in vitro ADME; details: for CLint scaled at 5 μM: liver microsomes, pH 7.4, in vivo CLint extrapolated from rat liver microsome incubation; for half-life at 5 μM: rat liver microsomes 0.5 mg protein/mL, compound 5 μM, NADPH 1.0 mM, pH 7.4, 37° C., read-out: Rat T1/2
Summary of the method: (§1)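 Compounds (5 μM) incubated at 37 °C with human or rat liver microsomes (0.5 mg protein/mL) and 1.0 mM NADPH in 100 mM phosphate buffer pH 7.4, 0.05% DMSO, in duplicate. Sampled 0–60 min, quantified by LC/MS/MS as % of time zero; CLint extrapolated.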

[2] = Compound stability in human liver microsomes; format: in vitro ADME; details: for half-life at 5 μM: human liver microsomes 0.5 mg protein/mL, compound 5 μM, NADPH 1.0 mM, pH 7.4, 37° C., read-out: Human T1/2; for CLint scaled at 5 μM: liver microsomes, pH 7.4, in vivo CLint extrapolated from human liver microsome incubation
Summary of the method: as §1

JAK2 (h) = target: T2, JAK2 (h) (Homo sapiens, UniProt O60674); test: JAK2 (h) kinase assay; format: biochemical; details: [γ-33P-ATP] 10 μM or KM values; 40 minutes at room temperature
T2 construct: purchased Millipore UK Ltd (assays performed there as a service)
T2 sequence (O60674 whole entry): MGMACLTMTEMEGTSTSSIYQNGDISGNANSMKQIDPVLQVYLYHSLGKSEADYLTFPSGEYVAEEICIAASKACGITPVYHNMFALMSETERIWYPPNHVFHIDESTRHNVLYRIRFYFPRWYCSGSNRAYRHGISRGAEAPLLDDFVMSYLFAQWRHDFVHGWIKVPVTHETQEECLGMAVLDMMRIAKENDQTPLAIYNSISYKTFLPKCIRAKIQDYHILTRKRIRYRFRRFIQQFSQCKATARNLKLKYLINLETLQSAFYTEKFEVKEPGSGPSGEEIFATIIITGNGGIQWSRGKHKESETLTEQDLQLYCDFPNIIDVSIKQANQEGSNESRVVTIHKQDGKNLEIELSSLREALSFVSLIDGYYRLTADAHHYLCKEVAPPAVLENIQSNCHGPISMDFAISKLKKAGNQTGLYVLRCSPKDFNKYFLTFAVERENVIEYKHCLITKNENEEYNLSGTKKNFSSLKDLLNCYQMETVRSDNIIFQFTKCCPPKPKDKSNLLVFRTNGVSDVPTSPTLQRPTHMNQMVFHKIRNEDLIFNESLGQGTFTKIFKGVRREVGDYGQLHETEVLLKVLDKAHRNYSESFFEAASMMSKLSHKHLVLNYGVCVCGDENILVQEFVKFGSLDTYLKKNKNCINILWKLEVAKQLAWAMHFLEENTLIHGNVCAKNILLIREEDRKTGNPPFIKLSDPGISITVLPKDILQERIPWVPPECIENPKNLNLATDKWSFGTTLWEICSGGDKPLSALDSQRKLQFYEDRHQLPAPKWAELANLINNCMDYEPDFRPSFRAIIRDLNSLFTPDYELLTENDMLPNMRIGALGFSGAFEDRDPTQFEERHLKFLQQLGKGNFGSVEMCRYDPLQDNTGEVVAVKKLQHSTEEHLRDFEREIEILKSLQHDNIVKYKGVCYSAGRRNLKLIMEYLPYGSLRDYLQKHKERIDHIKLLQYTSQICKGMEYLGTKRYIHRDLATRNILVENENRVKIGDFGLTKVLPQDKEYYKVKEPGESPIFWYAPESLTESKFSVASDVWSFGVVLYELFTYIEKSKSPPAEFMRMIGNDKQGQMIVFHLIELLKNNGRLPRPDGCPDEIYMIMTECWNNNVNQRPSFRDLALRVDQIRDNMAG
Protocol: Kinase assays can be performed by measurement of incorporation of γ-^33P ATP into immobilized myelin basic protein (MBP). High binding white 384 well plates (Greiner) are coated with MBP (Sigma # M-1891) by incubation of 60 μL well of 20 μg/mL MBP in Tris-buffered saline (TBS; 50 mM Tris pH 8.0, 138 mM NaCl, 2.7 mM KCl) for 24 h at 4° C. Plates are washed 3× with 100 μL TBS. Kinase reactions are carried out in a total volume of 34 μL in kinase buffer (according to the need to make, for example, 5 mM Hepes pH 7.6, 15 mM NaCl, 0.01% bovine gamma globulin (Sigma #1-5506), 10 mM MgCl2, 1 mM DTT, 0.02% TritonX-100). Compound dilutions are performed in DMSO and added to assay wells to a final DMSO concentration of 1%. Each data point is measured in duplicate, and at least two duplicate assays are performed for each individual compound determination. Enzyme is added to final concentrations of 10 nM or 20 nM, for example. A mixture of unlabeled ATP and γ-^33P ATP is added to start the reaction (2×10^6 cpm of γ-^33P ATP per well (3000 Ci/mmole) and 10 μM unlabeled ATP, typically. The reactions are carried out for 1 hour at room temperature with shaking. Plates are washed 7× with TBS, followed by the addition of 50 μL well scintillation fluid (Wallac). Plates are read using a Wallac Trilux counter. This is only one format of such assays; various other formats are possible, as known to one skilled in the art.
(§2) The above assay procedure can be used to determine the IC50 for inhibition and/or the inhibition constant, Ki. […] The IC50 value is estimated by preparing a 10 point curve using a ½ log dilution series (for example, a typical curve may be prepared using the following compound concentrations: 3 μM, 1 μM, 0.3 μM, 0.1 μM, 0.03 μM, 0.01 μM, 0.003 μM, 0.001 μM, 0.0003 μM and 0 μM).
JAK2 (h) is incubated with 8 mM MOPS pH 7.0, 0.2 mM EDTA, 100 μM […], 10 mM MgAcetate and [γ-^33P-ATP] […] The reaction is initiated by the addition of the MgATP mix. After incubation for 40 minutes at room temperature, the reaction is stopped by the addition of 3% phosphoric acid solution. 10 μL of the reaction is then spotted onto a P30 filtermat and washed three times for 5 minutes in 75 mM phosphoric acid and once in methanol prior to drying and scintillation counting.
(§3) The kinase assays described herein were performed at Millipore UK Ltd, Dundee Technology Park, Dundee DD2 1SW, UK.

Aurora-B (h) = target: T3, Aurora-B (h) (Homo sapiens, UniProt Q96GD4); test: Aurora-B (h) kinase assay; format: biochemical; details: [γ-33P-ATP] 10 μM or KM values; 40 minutes at room temperature
T3 construct: purchased Millipore UK Ltd (assays performed there as a service)
T3 sequence (Q96GD4 whole entry): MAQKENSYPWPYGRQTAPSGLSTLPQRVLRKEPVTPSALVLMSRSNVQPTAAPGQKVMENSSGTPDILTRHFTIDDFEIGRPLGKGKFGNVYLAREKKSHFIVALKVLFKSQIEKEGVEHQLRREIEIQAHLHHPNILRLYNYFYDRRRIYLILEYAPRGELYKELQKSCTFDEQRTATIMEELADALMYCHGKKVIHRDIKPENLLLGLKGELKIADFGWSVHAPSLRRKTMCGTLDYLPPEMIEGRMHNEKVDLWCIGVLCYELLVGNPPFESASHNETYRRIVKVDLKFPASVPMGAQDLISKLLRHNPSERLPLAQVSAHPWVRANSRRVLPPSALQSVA
Protocol: as §2
Aurora-B (h) is incubated with 8 mM MOPS pH 7.0, 0.2 mM EDTA, 30 μM […], 10 mM MgAcetate and [γ-^33PATP] […] The reaction is initiated by the addition of the MgATP mix. After incubation for 40 minutes at room temperature, the reaction is stopped by the addition of a 3% phosphoric acid solution. 10 μL of the reaction is then spotted onto a P30 filtermat and washed three times for 5 minutes in 75 mM phosphoric acid and once in methanol prior to drying and scintillation counting.
as §3

[3] = system: PMA-induced increase in mouse ear thickness and weight; test: Topical PMA-induced acute atopic dermatitis in ICR mice; format: in vivo; details: ICR female mice, 0.3 mg/ear/bid topical; for thickness (right ear) / Weight (right ear): 30 minutes before and 15 minutes after PMA, Mean±Sem; for thickness (right ear) / thickness Inhibition ratio: 6 hours after PMA
Protocol: ICR female mice (20-30 g), five mice or nine mice/group, were used in this study. Five micrograms of PMA (phorbol 12-myristate 13-acetate) in 20 μL of ethanol was applied topically to the anterior and posterior surface of the right ear of each mouse. Twenty microliters of vehicle (ethanol/acetone ([…])=1/1); 0.3 mg of EX. 68 ([…]); EX. 76, EX. 50, EX. 92 or EX. 65 (0.3 mg […]) were administrated to the same areas 30 minutes before and 15 minutes after PMA application. The thickness of right ears of each mouse was measured 6 hours after PMA stimulation. Ear weight of right ears of each mouse was weighed with analytical balance Each value represents the Mean±Sem. Statistical significance compared with model groups (*P<0.05; **P<0.01). Tables 5-1, 5-2 and 5-3 listed the inhibitory effect on PMA-induced increase in mouse ear thickness and weight. The compounds of the present invention have a good inhibitory effect on PMA-induced increase in mouse ear thickness and weight.

T1 sequence (P23458 whole entry): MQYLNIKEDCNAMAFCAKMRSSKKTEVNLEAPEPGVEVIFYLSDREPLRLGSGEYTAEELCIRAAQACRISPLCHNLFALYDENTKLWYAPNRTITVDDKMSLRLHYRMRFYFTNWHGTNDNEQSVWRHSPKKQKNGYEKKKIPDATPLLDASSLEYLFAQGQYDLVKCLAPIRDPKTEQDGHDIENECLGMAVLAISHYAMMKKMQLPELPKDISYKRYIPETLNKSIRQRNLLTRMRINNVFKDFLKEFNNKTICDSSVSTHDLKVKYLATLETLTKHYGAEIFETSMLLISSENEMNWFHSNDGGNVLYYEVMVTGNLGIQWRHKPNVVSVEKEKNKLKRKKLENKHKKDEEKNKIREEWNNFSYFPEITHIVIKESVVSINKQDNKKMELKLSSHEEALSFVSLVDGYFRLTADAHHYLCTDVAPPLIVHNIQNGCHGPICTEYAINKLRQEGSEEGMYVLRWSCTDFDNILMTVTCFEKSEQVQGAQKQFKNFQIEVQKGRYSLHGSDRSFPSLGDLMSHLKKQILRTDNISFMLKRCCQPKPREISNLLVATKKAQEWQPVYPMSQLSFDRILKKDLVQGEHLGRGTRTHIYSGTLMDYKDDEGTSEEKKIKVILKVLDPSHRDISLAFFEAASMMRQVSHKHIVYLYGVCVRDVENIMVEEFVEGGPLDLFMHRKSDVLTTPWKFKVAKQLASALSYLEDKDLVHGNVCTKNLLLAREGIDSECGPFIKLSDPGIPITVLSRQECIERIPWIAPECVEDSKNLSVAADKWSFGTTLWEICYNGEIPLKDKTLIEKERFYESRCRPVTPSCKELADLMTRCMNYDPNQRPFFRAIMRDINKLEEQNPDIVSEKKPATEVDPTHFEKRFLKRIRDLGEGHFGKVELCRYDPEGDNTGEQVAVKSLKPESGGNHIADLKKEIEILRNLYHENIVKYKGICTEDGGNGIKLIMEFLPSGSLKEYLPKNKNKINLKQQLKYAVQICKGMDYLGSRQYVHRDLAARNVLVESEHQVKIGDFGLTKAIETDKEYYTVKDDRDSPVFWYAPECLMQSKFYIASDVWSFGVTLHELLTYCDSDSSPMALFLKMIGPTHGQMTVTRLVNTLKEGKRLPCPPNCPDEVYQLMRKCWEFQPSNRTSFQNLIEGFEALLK

Row | IC50 (JAK1 (h)) [nM] | CLint scaled at 5 μM [1] [mL/min/kg] | half-life at 5 μM [1] [min] | half-life at 5 μM [2] [min] | CLint scaled at 5 μM [2] [mL/min/kg] | IC50 (JAK2 (h)) [nM] | IC50 (Aurora-B (h)) [nM] | Structure (SMILES) | Weight Inhibition ratio [3] [%] | thickness (right ear) [3] | Weight (right ear) [3] | thickness Inhibition ratio [3] [%]
1 | 0.4 | 75.3 | 33 | 192 | 9.1 | 2 | 48 | CC(C)(O)Cn1nnc2cc(Nc3ncc(Cl)c(NC4CCN(c5ccc(C#N)nn5)CC4)n3)ccc21 [Example 62, 6-(4-((5-chloro-2-((1-(2-hydroxy-2-methylpropyl)-1H-benzo[d][1,2,3]triazol-5-yl)amino)pyrimidin-4-yl)amino)piperidin-1-yl)pyridazine-3-carbonitrile] | – | – | – | –
2 | 0.9 | 473 | 5.3 | 8 | 218 | – | – | CCCn1nnc2cc(Nc3ncc(Cl)c(NC4CCN(c5ccc(C#N)nn5)CC4)n3)ccc21 [Example 65, 6-(4-((5-chloro-2-((1-propyl-1H-benzo[d][1,2,3]triazol-5-yl)amino)pyrimidin-4-yl)amino)piperidin-1-yl)pyridazine-3-carbonitrile] | 46.22 | 0.374 ± 0.022** mm | 26.333 ± 1.958* mg | 38.95
3 | 0.5 | 1440 | 1.7 | 15.1 | 115 | – | – | CC(C)(O)Cc1cn2ccc(Nc3ncc(Cl)c(NC4CCN(c5ccc(C#N)cn5)CC4)n3)cc2n1 [Example 76, 6-(4-((5-chloro-2-((2-(2-hydroxy-2-methylpropyl)imidazo[1,2-a]pyridin-7-yl)amino)pyrimidin-4-yl)amino)piperidin-1-yl)nicotinonitrile] | 68.40 | 0.252 ± 0.018** mm | 20.000 ± 1.323** mg | 77.86
4 | 0.3 | 106 | 23.5 | 32.5 | 53.5 | 17 | 163 | CN(C)C(=O)c1nc2cc(Nc3ncc(Cl)c(NC4CCN(c5ccc(C#N)nn5)CC4)n3)ccn2n1 [Example 85, 7-((5-chloro-4-((1-(6-cyanopyridazin-3-yl)piperidin-4-yl)amino)pyrimidin-2-yl)amino)-N,N-dimethyl-[1,2,4]triazolo[1,5-a]pyridine-2-carboxamide] | – | – | – | –
